From PMC3850926, “Evaluation of the adverse event profile and pharmacodynamics of toceranib phosphate administered to dogs with solid tumors at doses below the maximum tolerated dose” (BMC Veterinary Research, 2013)
Like-named read-outs stand apart in the source and are kept apart here.

Columns and labels:
dogs with solid tumors = test: Assessment of adverse events (VCOG-CTCAE); type: in vivo, dog
Method: All dogs were placed on famotidine at 0.5-1 mg/kg once per day at study initiation and owners were instructed to administer the toceranib in the morning with food. […] Dogs were evaluated for AEs on days 0, 7, 14, and 30 of study, as well as at interim time points as needed. AEs were defined and graded according to the published VCOG-CTCAE criteria. Disease progression or signs and symptoms definitely related to disease were not considered AEs.

[1] = test system: dogs with a variety of tumors; set-up: method as in PMID 12855656; details: cited from earlier work
[2] = number of AEs, 40 dogs, 2.4-2.9 mg/kg EOD, 30 days

Compound: Cc1[nH]c(/C=C2\C(=O)Nc3ccc(F)cc32)c(C)c1C(=O)NCCN1CCCC1 [toceranib, Toceranib phosphate]
- grade 3 or 4 GI adverse events (dogs with solid tumors; 2.4-2.9 mg/kg EOD): no grade 3 or 4 GI adverse events
- dogs with increased BUN without concomitant increase in creatinine (dogs with solid tumors; 6 had concurrent gastrointestinal upset): 9 dogs
- dogs with grade 1 anemia (dogs with solid tumors; 6 had mild anemia of chronic disease before treatment): Thirteen
- clinical evidence of hepatotoxicity (dogs with solid tumors; 40 dogs, 30 days): no dogs
- dogs that developed grade 1 anorexia (number) (dogs with solid tumors; 40 dogs, 30 days): Thirteen
- dogs that developed grade 1 anorexia (percent) (dogs with solid tumors; 40 dogs, 30 days): 32.5%
- dogs that developed grade 1 diarrhea (number) (dogs with solid tumors; 40 dogs, 30 days): Fifteen
- dogs that developed grade 1 vomiting (number) (dogs with solid tumors; 40 dogs, 30 days): Eighteen
- dogs that developed grade 2 diarrhea (dogs with solid tumors; 40 dogs, 30 days): Six
- dogs with grade 1 increases in AST (dogs with solid tumors; 40 dogs, 30 days): Five
- dogs with grade 1 thrombocytopenia (dogs with solid tumors; 40 dogs, 30 days): 2 dogs
- dogs with grade 2 anorexia (dogs with solid tumors; 40 dogs, 30 days): 1 dogs
- dogs with grade 2 colitis (dogs with solid tumors; 40 dogs, 30 days): two
- dogs with grade 2 vomiting (dogs with solid tumors; 40 dogs, 30 days): 3 dogs
- dogs with grade 3 hypertension (dogs with solid tumors; 40 dogs, 30 days): 2 dogs
- dogs with grade 3 lameness (dogs with solid tumors; 40 dogs, 30 days): 1 dogs
- dogs with mild-to-moderate lameness (grade 1–2) (dogs with solid tumors; 40 dogs, 30 days): 10 dogs
- dogs with more than one episode of grade 1 diarrhea (dogs with solid tumors; 40 dogs, 30 days): 10 dogs
- dogs with more than one event of grade 1 vomiting (dogs with solid tumors; 40 dogs, 30 days): 5 dogs
- dogs with transient grade 1 elevations in ALT (dogs with solid tumors; 40 dogs, 30 days): 7 dogs
- dogs with grade 1 neutropenia (number) (dogs with solid tumors; after 1–3 weeks of therapy): 20/40
- share of AEs that were grade 1 or grade 2 (dogs with solid tumors; all AEs of the study): 86%
- share of AEs that were grade 2 (dogs with solid tumors; all AEs of the study): 12%
- dogs that developed hypertension (any grade) (dogs with solid tumors; blood pressure measured only in animals with signs): 3 dogs
- adverse event profile compared to the label dose of 3.25 mg/kg EOD (dogs with solid tumors; dog, in vivo): substantially reduced adverse event profile
- dogs with grade 3 AST elevation (dogs with solid tumors; end of study period): 1 dogs
- dogs with weight loss (dogs with solid tumors; grade 1 event): 3 dogs
- dogs with lethargy (number) (dogs with solid tumors; grade 1 or 2, 40 dogs, 30 days): 13 dogs
- dogs with lethargy (percent) (dogs with solid tumors; grade 1 or 2, 40 dogs, 30 days): 32.5%
- dogs requiring a dose modification (dogs with solid tumors; initiated at 2.5 mg/kg): five
- dogs requiring a dose modification (dogs with solid tumors; initiated at 2.75 mg/kg): three
- Alopecia, Grade 1 (dogs with solid tumors; [2]): 1
- Anemia, Grade 1 (dogs with solid tumors; [2]): 13
- Anorexia, Grade 1 (dogs with solid tumors; [2]): 15
- Anorexia, Grade 2 (dogs with solid tumors; [2]): 1
- Colitis, Grade 2 (dogs with solid tumors; [2]): 2
- Constipation, Grade 1 (dogs with solid tumors; [2]): 1
- Cough, Grade 1 (dogs with solid tumors; [2]): 4
- Dermatitis, Grade 1 (dogs with solid tumors; [2]): 1
- Diarrhea, Grade 1 (dogs with solid tumors; [2]): 34
- Diarrhea, Grade 2 (dogs with solid tumors; [2]): 6
- Epistaxis, Grade 1 (dogs with solid tumors; [2]): 3
- Fever, Grade 2 (dogs with solid tumors; [2]): 1
- Hand-foot syndrome, Grade 1 (dogs with solid tumors; [2]): 1
- Hypertension, Grade 1 (dogs with solid tumors; [2]): 1
- Hypertension, Grade 3 (dogs with solid tumors; [2]): 2
- Hypopigmentation, Grade 1 (dogs with solid tumors; [2]): 2
- Ileus, Grade 3 (dogs with solid tumors; [2]): 1
- Increase ALP, Grade 1 (dogs with solid tumors; [2]): 9
- Increase ALP, Grade 2 (dogs with solid tumors; [2]): 2
- Increase ALP, Grade 3 (dogs with solid tumors; [2]): 1
- Increase ALT, Grade 1 (dogs with solid tumors; [2]): 7
- Increase ALT, Grade 3 (dogs with solid tumors; [2]): 1
- Increase ALT, Grade 4 (dogs with solid tumors; [2]): 1
- Increase AST, Grade 1 (dogs with solid tumors; [2]): 5
- Increase AST, Grade 3 (dogs with solid tumors; [2]): 1
- Increase BUN, Grade 1 (dogs with solid tumors; [2]): 9
- Increase BUN, Grade 2 (dogs with solid tumors; [2]): 1
- Increase CK, Grade 1 (dogs with solid tumors; [2]): 2
- Lameness, Grade 1 (dogs with solid tumors; [2]): 6
- Lameness, Grade 2 (dogs with solid tumors; [2]): 8
- Lameness, Grade 3 (dogs with solid tumors; [2]): 1
- Lethargy, Grade 1 (dogs with solid tumors; [2]): 15
- Lethargy, Grade 2 (dogs with solid tumors; [2]): 2
- Neutropenia, Grade 1 (dogs with solid tumors; [2]): 20
- Neutropenia, Grade 2 (dogs with solid tumors; [2]): 1
- Ocular discharge, Grade 1 (dogs with solid tumors; [2]): 3
- Pancreatitis, Grade 3 (dogs with solid tumors; [2]): 1
- Panting, Grade 1 (dogs with solid tumors; [2]): 3
- Protein losing nephropathy, Grade 1 (dogs with solid tumors; [2]): 4
- Pruritus, Grade 1 (dogs with solid tumors; [2]): 1
- Thrombocytopenia, Grade 1 (dogs with solid tumors; [2]): 2
- Vomiting, Grade 1 (dogs with solid tumors; [2]): 23
- Vomiting, Grade 2 (dogs with solid tumors; [2]): 3
- Weight loss, Grade 1 (dogs with solid tumors; [2]): 3
- all adverse events, Grade 1 (total) (dogs with solid tumors; [2]): 188
- all adverse events, Grade 2 (total) (dogs with solid tumors; [2]): 27
- all adverse events, Grade 3 (total) (dogs with solid tumors; [2]): 8
- all adverse events, Grade 4 (total) (dogs with solid tumors; [2]): 1
- lethargy, grade 1 episodes among the affected dogs (dogs with solid tumors; remainder grade 2): 11
- dogs with depigmentation and thinning of the footpads in all 4 limbs (dogs with solid tumors; resolved after 1 week discontinuation): One
- weight loss, percent of initial recorded body weight (dogs with solid tumors; the 3 affected dogs): 5-10%
- dogs with dose changed (drug holiday and/or dose reduction), number (dogs with solid tumors; throughout the study period): 8 dogs
- dogs with dose changed (drug holiday and/or dose reduction), percent (dogs with solid tumors; throughout the study period): 20%
- patients that developed protein losing nephropathy (PLN) (dogs with solid tumors; without an apparent cause): 4 patients
- complete responses, CR (number of dogs) ([1]; 2.5 mg/kg EOD, 16 dogs): 4
- objective response (number of dogs) ([1]; 2.5 mg/kg EOD, 16 dogs): 6 dogs
- objective response (percent) ([1]; 2.5 mg/kg EOD, 16 dogs): 37.5%
- partial responses, PR (number of dogs) ([1]; 2.5 mg/kg EOD, 16 dogs): 2
- stable disease, SD (number of dogs) ([1]; 2.5 mg/kg EOD, 16 dogs): 5 dogs
- CR (number of dogs) ([1]; 3.25 mg/kg EOD, 20 dogs): 2
- PR (number of dogs) ([1]; 3.25 mg/kg EOD, 20 dogs): 6
- objective response (number of dogs) ([1]; 3.25 mg/kg EOD, 20 dogs): 8
